Publication PMC7356940, “Comparison between Colistin Sulfate Dry Powder and Solution for Pulmonary Delivery” (Pharmaceutics, 2020)
Structures can show the parent of a compound that is named as a salt. Where a SMILES comes first, the peptide text is derived from it. Bridges are numbered along the chain shown (N, C = ends). [ ]: non-standard residue; d: D form. The star is where a group is joined. X1 = CC[C@H](C)CCCCC(=O)*; Dab = NCC[C@H](N)C(=O)O

Assays:
[1] = test system: Calu-3 cell epithelium model; settings: cited from earlier work
Text: COLI Papp changed as a function of COLI concentration in the Calu-3 cell monolayer apical side (Figure 5). […] This value was consistent with a previous determination (0.42 × 10^−7 cm·s^−1).

[2] = fixed in the PK model; cited from earlier work
Text: Plasma and ELF COLI concentrations versus time were simultaneously analyzed by a nonlinear mixed-effects method with S-ADAPT software (v 1.52, Biomedical Simulations Resource (BMSR), Los Angeles, USA) with S-ADAPT TRAN translator [19]. The structural model (Appendix C, Figure A3) used for data analysis has been developed in a previous study to fit plasma and ELF COLI concentrations after COLI intravenous administrations and solution nebulization to rats. Briefly, the systemic pharmacokinetics of COLI were described by a two-compartment model, characterized by a central compartment (Vc ...

[3] = cited from earlier work
Text: Due to its low permeability across the lung–blood barrier, colistin methanesulfonate (CMS) is one of only four antibiotics currently used to treat Pseudomonas aeruginosa lung infections by inhalation. CMS is an anionic prodrug of colistin (COLI), which is a cationic lipopeptide mix composed mainly of two molecules: colistin A and B. Inhaled COLI therapy is almost always conducted by means of nebulization of CMS instead of the cationic COLI since the use of the latter can lead to more side effects, such as bronchoconstriction, throat irritation, and cough.

[4] = previous studies; cited from earlier work
Description: The day before the experiment polyethylene catheters were implanted into the femoral artery of anesthetized rats. […] Accordingly, arterial blood samples were collected at 0, 0.25, 0.5, 1, 2, 3, and 4 h after pulmonary administration. Plasma was obtained and frozen at −80 °C.

[5] = Plasma and ELF pharmacokinetics after intratracheal administration, simultaneous PK modeling; settings: male, Sprague–Dawley, rat, in vivo, rats, 0.35 mg·kg^−1, whatever the formulation used
Description: In vivo experiments were undertaken in compliance with EC Directive 2010/63/EU after agreement by a local ethics committee. Male Sprague–Dawley rats (n = 68) from Janvier Laboratories (Le Genest-St.-Isle, France) with weights of 324 ± 24 g (mean ± SD) were used. Animals were acclimatized for 5 days prior to experiments. They always had free access to food and water.
The target COLI dose delivered was 0.35 mg kg^−1 (base form). This dose was previously used in our lab to investigate the pharmacokinetic properties of colistin following intratracheal administration of colistin sulfate solution in rats. […] The insufflator was weighed with a 0.01 mg accuracy scale (Sartorius KB BA100) before and after insufflation to determine the exact amount of powder delivered, and the dose of colistin administered was calculated based on the animal’s weight. […]
Bronchoalveolar lavage fluid (BALF) collection was performed according to methods previously described. […] COLI and urea concentrations were determined in both plasma and BALF. […] Therefore, the COLI concentration in ELF(CELF) was calculated using Equation 1 from measured COLI concentrations in BALF (CBAL) by using urea as a marker of dilution. CELF = CBAL (Ureaplasma/UreaBAL)(1) where UreaBAL and Ureaplasma correspond to the concentrations of urea determined in BALF and plasma. […]

[6] = test system: Calu-3 cell epithelium model; assay: Apical-to-basolateral COLI transport across Calu-3 monolayers; format: in vitro ADME
Description: (§1) Calu-3 cells were purchased from the American Type Culture Collection (Manassas, VA, USA). The cells were cultured in DMEM/Ham’s F12 (1/1) (PanBiotech) supplemented with L-glutamine (2 mM), fetal calf serum (10% v/v), and incubated at 37 °C under 90–95% of RH and 5% v/v of CO2 in the air.
(§2) Samples were taken after 60 min at 37 °C.
(§3) The determination of COLI plasma concentrations was performed based on a validated LC-MS/MS method previously described. The chromatography was performed on an Alliance 2695 system (Waters, France) with a Jupiter 300-Å column (5.0 µm, 50 mm, 2.0-mm i.d.; Waters, St.-Quentin en Yvelines, France) and a mobile phase (flow rate 0.2 mL/min) consisting of 0.1% (v/v) formic acid in acetonitrile–0.1% formic acid in water (25:75 v/v). The mass spectrometer Micromass Quattro microAPI (Waters, France) was used in the positive/ion mode. The calibration standard curve was prepared with seven samples in rat plasma with COLI base concentrations ranging between 0.0097 and 10 µg·mL^−1. For analysis of COLI in BALF and in the medium used for the COLI transport experiments, 150 µL of sample was mixed with 100 µL of plasma and analyzed as for plasma.

[7] = as above; format: in vitro ADME; settings: human; Calu-3, air-interface 15 days, apical-to-basolateral, COLI 100 mg/L (COLI or dissolved INU-COLI particles), HBSS/10 mM HEPES pH 7.4, 6 h, LC-MS/MS; read-out: COLI apparent permeability (Papp)
Description: as §1, §2, §3

P. aeruginosa = settings: cited from earlier work
Text: However, CMS is not an optimal p ...

## CC[C@H](C)CCCCC(=O)N[C@@H](CCN)C(=O)N[C@H](C(=O)N[C@@H](CCN)C(=O)N[C@H]1CCNC(=O)[C@H]([C@@H](C)O)NC(=O)[C@H](CCN)NC(=O)[C@H](CCN)NC(=O)[C@H](CC(C)C)NC(=O)[C@@H](CC(C)C)NC(=O)[C@H](CCN)NC1=O)[C@@H](C)O [COLI, Colistin sulfate salt] (X1-[Dab]T[Dab][Dab][Dab][dL]L[Dab][Dab]T; lactam 4-C)
[1]
  COLI Papp, previous determination: 0.42 10^−7 cm·s^−1
[2]
  COLI unbound plasma fraction: 45%
[3]; patients, six hours after inhalation of nebulized CMS solutions
  COLI concentrations measured in the ELF: greater than 1000 mg/L
[4]
  plasma COLI half-life: 30 to 40 min
[5]
  Cmax: 330 ng/mL
  Tmax: 30 min
[6]; Calu-3, COLI concentration changed from 100 to 4000 mg/L
  fold increase in COLI Papp: 10 fold
[6]; Calu-3 A-B, 6 h, COLI concentration increased to 1000 mg/L (from 100 mg/L)
  fold increase in COLI Papp: 4 fold
[6]; Calu-3 A-B, 6 h, further increase in COLI concentration to 4000 mg/L (from 1000 mg/L)
  additional fold increase in COLI Papp: 2.5 fold
[7]
  Papp A→B at 6 h, 100 mg/L: 0.043 ± 0.011 ×10⁻⁶ cm/s

## colistin methanesulfonate [CMS]
P. aeruginosa
  activity against P. aeruginosa: inactive
[3]; human, in vivo
  fraction of the CMS dose converted into COLI in the lung: 1.4 % (w/w)
